We go through eleven compounds from patent US10933059B2, “Combination, application thereof and treatment method” (KANGPU BIOPHARMACEUTICALS, LTD., priority 2016, dated 2021).

Like-named read-outs stand apart in the source and are kept apart here.

This assay relates to Vcap cells. The experiment in a line: CTG cell proliferation assay on Vcap cells (compounds alone or in combination, 5 days). The format is cell-based. The protocol: In vitro test of the inhibition effect of the compound in combination with androgen receptor pathway modulators on the prostate cancer cell proliferation.
Inhibition effect of the compounds such as B101, B102, B103, B104, B105, B106, C111 and the like, androgen receptor pathway modulators, hormone compounds, alone or in combination with each other on the prostate cancer cell proliferation were tested on Vcap cells (androgen receptor (+) prostate cancer cells) (ATCC, catalogue number CRL-2876). The specific experimental operation was as follows: 5×10^3 Vcap cells per well were inoculated into 96-well plates with transparent bottom and white wall (Corning, catalogue number CLS3903) containing the specific medium, and were cultured in a 37° C., 5% CO2 incubator for 24 hours. The tested compounds and the androgen receptor pathway modulators were prepared to a 150 mM stocking solution with DMSO (Sigma, catalogue number 276855), diluted with culture medium to the desired concentrations (the final concentration of DMSO is 0.2%), and then added to each well, 2 wells/concentration, followed by being incubated in a 37° C., 5% CO2 incubator for 5 days. The tested compounds were used alone or in combination with other androgen receptor pathway modulators and/or hormone compounds respectively. […] After that, 100 μl of CellTiter-Glo® cell viability assay reagent (Promega, catalogue number G7570) was added to each well and mixed well on a vibrator for 10 minutes to induce cell lysis. The 96-well plate was placed at room temperature for 10 minutes, so as to stabilize its luminescence signal. A white bottom membrane was pasted on the bottom of the plate and the plate was tested using EnSpire.

Where [1] appears, read: Homo sapiens, VCaP, 120 h, tested compound alone, 0.1 μM, read-out: Survival rate of Vcap cells.
The mark [2] stands for this setting: Homo sapiens, VCaP, 120 h, tested compound alone, 1 μM, read-out: Survival rate of Vcap cells.
Where [3] appears, read: Homo sapiens, VCaP, 120 h, tested compound alone, 10 μM, read-out: Survival rate of Vcap cells.
Setting [4] is: tested compound 0.1 μM in combination with 1 μM ARN-509.
[5] abbreviates: tested compound 0.1 μM in combination with 1 μM Enzalutamide.
Where [6] appears, read: tested compound 1 μM in combination with 1 μM ARN-509.
[7] abbreviates: tested compound 1 μM in combination with 1 μM Enzalutamide.
Where [8] appears, read: tested compound 10 μM in combination with 1 μM ARN-509.
[9] abbreviates: tested compound 10 μM in combination with 1 μM Enzalutamide.
[10] abbreviates: tested compound 0.1 μM in combination with 1 μM B101.
Where [11] appears, read: tested compound 0.1 μM in combination with 1 μM B105.
Where [12] appears, read: tested compound 1 μM in combination with 1 μM B101.
[13] abbreviates: tested compound 1 μM in combination with 1 μM B105.
The mark [14] stands for this setting: tested compound 10 μM in combination with 1 μM B101.
Setting [15] is: tested compound 10 μM in combination with 1 μM B105.
Where [16] appears, read: Homo sapiens, VCaP, 120 h, read-out: Survival rate of Vcap cells, tested compound alone, 0.1 μM.
The mark [17] stands for this setting: Homo sapiens, VCaP, 120 h, read-out: Survival rate of Vcap cells, tested compound alone, 10 μM.

For `Nc1cc(F)cc2c1CN([C@@H]1CCC(=O)NC1=O)C2=O` [B103], the viability at 0.1 µM under setting [1] turned out to be 86.3%. The viability at 1 µM under setting [2] was found to be 84.1%. Moreover, the viability at 10 µM under setting [3] amounted to 85.5%. Besides, the “Survival rate of Vcap cells” value turned out to be 48.8% under setting [4]; 50.2% under setting [5]; 41.7% under setting [6]; 42.7% under setting [7]; 38.3% under setting [8]; 42.9% under setting [9]. For the same compound, the “Survival rate of Vcap cells” value (tested compound alone, 1 μM) turned out to be 84.1%.
Take `CC(C)C(=O)Nc1ccc([N+](=O)[O-])c(C(F)(F)F)c1` [Flutamide, reference compound]: the viability at 0.1 µM under setting [1] worked out at 105%. Besides, under setting [2], the viability at 1 µM amounted to 96.7%. Besides, the viability at 10 µM under setting [3] was found to be 73.1%. For the same compound, the “Survival rate of Vcap cells” value stood at 80.4% under setting [10]; 76.5% under setting [11]; 65.1% under setting [12]; 64.6% under setting [13]; 42.8% under setting [14]; 43.8% under setting [15].
Consider `CC(O)c1cc(C(=O)N[C@@H](C)Cn2ccc(-c3ccc(C#N)c(Cl)c3)n2)[nH]n1` (some centres unmarked) [ODM-201, reference compound], for which, under setting [16], the viability at 0.1 µM is 90.7%. For the same compound, the viability at 10 µM under setting [17] is 75.4%. Besides, the viability at 1 µM under setting [2] was 69%. Further, where the note is “tested compound alone, 1 μM”, the “Survival rate of Vcap cells” value was determined as 69.0%.
For the compound `C[C@](O)(COc1ccc(C#N)cc1)C(=O)Nc1ccc(C#N)c(C(F)(F)F)c1` [MK-2866, reference compound], the viability at 0.1 µM under setting [16] worked out at 76.5%. Further, the viability at 1 µM (Homo sapiens, VCaP, 120 h, read-out: Survival rate of Vcap cells, tested compound alone, 1 μM) came out at 77.4%. For the same compound, the viability at 10 µM under setting [17] is 69.4%. For the same compound, the “Survival rate of Vcap cells” value was 61.4% under setting [10]; 62.6% under setting [11]; 63.6% under setting [12]; 59.7% under setting [13]; 52.7% under setting [14]; 52.5% under setting [15].
Regarding `CC(O)(CS(=O)(=O)c1ccc(F)cc1)C(=O)Nc1ccc(C#N)c(C(F)(F)F)c1` (centres unmarked) [bicalutamide, reference compound], the viability at 0.1 µM under setting [16] worked out at 99.2%. In addition, the viability at 1 µM under setting [2] stood at 94%. Besides, under setting [3], the viability at 10 µM is 92%. Also, the “Survival rate of Vcap cells” value under setting [10] is recorded as 70.5%; the “Survival rate of Vcap cells” value under setting [11] was found to be 75.9%; the “Survival rate of Vcap cells” value under setting [12] was 66.5%; the “Survival rate of Vcap cells” value under setting [13] is 67.3%; the “Survival rate of Vcap cells” value under setting [14] came to 64.0%; the “Survival rate of Vcap cells” value under setting [15] is 63.4%.
Regarding `[2H][C@@]1(N2Cc3c(N)cc(F)cc3C2=O)CCC(=O)NC1=O` [B106], under setting [1], the viability at 0.1 µM was 86.8%. The viability at 1 µM under setting [2] is 79%. Besides, the viability at 10 µM under setting [3] was found to be 74.1%. The “Survival rate of Vcap cells” value reads like this: under setting [4], 50.6%; under setting [5], 50.6%; under setting [6], 41.1%; under setting [7], 40.5%; under setting [8], 39.9%; under setting [9], 38.2%. Further, the “Survival rate of Vcap cells” value (tested compound alone, 1 μM) stood at 79.0%.
Turning to `CC(=O)O[C@]1(C(C)=O)CC[C@H]2[C@@H]3C=C(C)C4=CC(=O)CC[C@]4(C)[C@H]3CC[C@@]21C` [Megestrol Acetate, reference compound], the viability at 0.1 µM under setting [1] is 99.7%. The viability at 1 µM under setting [2] was determined as 103%. Also, the viability at 10 µM under setting [3] came out at 88.9%. The “Survival rate of Vcap cells” value was 85.2% under setting [10]; 82.1% under setting [11]; 83.1% under setting [12]; 83.3% under setting [13]; 75.2% under setting [14]; 76.6% under setting [15].
As for `C[C@]12CC[C@H](O)C[C@@H]1CC[C@@H]1[C@@H]2CC[C@]2(C)C(=O)CC[C@@H]12` [Epiandrosterone, reference compound], the “Survival rate of Vcap cells” value is given as 71.5% under setting [11]; 71.1% under setting [12]; 64.6% under setting [13]; 79.8% under setting [14]; 77.4% under setting [15].
With `CC(=O)O[C@]1(C(C)=O)CC[C@H]2[C@@H]3C=C(Cl)C4=CC(=O)[C@@H]5C[C@@H]5[C@]4(C)[C@H]3CC[C@@]21C` [Cyproterone Acetate, reference compound], the viability at 0.1 µM under setting [1] was 97.2%. Moreover, the viability at 1 µM under setting [2] is 96%. Further, the viability at 10 µM under setting [3] came out at 83.5%. The “Survival rate of Vcap cells” value turned out to be 85.0% under setting [10]; 82.1% under setting [11]; 85.0% under setting [12]; 84.0% under setting [13]; 78.9% under setting [14]; 79.4% under setting [15].
`[2H][C@]1(N2Cc3c(OCc4ccc(CN5CCOCC5)cc4F)cccc3C2=O)CCC(=O)NC1=O` [C111]: for the setting “Homo sapiens, VCaP, 120 h, B105 or C111 0.05 μM alone, 5 days, read-out: Vcap cell proliferation inhibition rate”, the inhibition at 0.05 µM came to 19.6%. Under “Homo sapiens, VCaP, 120 h, B105 or C111 0.14 μM alone, 5 days, read-out: Vcap cell proliferation inhibition rate”, the inhibition at 0.14 µM is 20.9%. Further, the inhibition at 1.23 µM (Homo sapiens, VCaP, 120 h, B105 or C111 1.23 μM alone, 5 days, read-out: Vcap cell proliferation inhibition rate) came to 23.4%. The inhibition at 3.7 µM (Homo sapiens, VCaP, 120 h, B105 or C111 3.70 μM alone, 5 days, read-out: Vcap cell proliferation inhibition rate) was found to be 25.4%. Where the note is “Homo sapiens, VCaP, 120 h, B105 or C111 11.11 μM alone, 5 days, read-out: Vcap cell proliferation inhibition rate”, the inhibition at 11.11 µM was determined as 28.8%. Where the note is “Homo sapiens, VCaP, 120 h, B105 or C111 33.33 μM alone, 5 days, read-out: Vcap cell proliferation inhibition rate”, the inhibition at 33.33 µM amounted to 29.1%. Also, for the setting “Homo sapiens, VCaP, 120 h, B105 or C111 100.00 μM alone, 5 days, read-out: Vcap cell proliferation inhibition rate”, the inhibition at 100 µM came to 31.6%. Further, under “Homo sapiens, VCaP, 120 h, B105 or C111 300.00 μM alone, 5 days, read-out: Vcap cell proliferation inhibition rate”, the inhibition at 300 µM was 33.9%. For the same compound, the viability at 0.1 µM under setting [1] was 81.5%. For the same compound, the viability at 1 µM under setting [2] was determined as 81%. Moreover, the viability at 10 µM under setting [3] is 77%. Also, the “Survival rate of Vcap cells” value by setting is: under setting [4], 37.0%; (tested compound 0.1 μM in combination with 1 μM Abiraterone acetate) 65.5%; under setting [5], 36.3%; (tested compound 0.1 μM in combination with 1 μM Galeterone) 46.6%; (tested compound 0.1 μM in combination with 1 μM ODM-201) 45.9%; under setting [6], 35.6%. For the same compound, the “Survival rate of Vcap cells” value (tested compound 1 μM in combination with 1 μM Abiraterone acetate) was 68.5%; the “Survival rate of Vcap cells” value under setting [7] is 35.8%; the “Survival rate of Vcap cells” value (tested compound 1 μM in combination with 1 μM Galeterone) is recorded as 47.0%; the “Survival rate of Vcap cells” value (tested compound 1 μM in combination with 1 μM ODM-201) amounted to 43.1%; the “Survival rate of Vcap cells” value under setting [8] stood at 37.3%; the “Survival rate of Vcap cells” value (tested compound 10 μM in combination with 1 μM Abiraterone acetate) was 66.1%. Besides, the “Survival rate of Vcap cells” value came to 36.6% under setting [9], 47.8% (tested compound 10 μM in combination with 1 μM Galeterone) and 37.2% (tested compound 10 μM in combination with 1 μM ODM-201).
`Nc1cc(F)cc2c1CN([C@H]1CCC(=O)NC1=O)C2=O` [B102]: under setting [1], the viability at 0.1 µM came to 84.7%. Also, the viability at 1 µM under setting [2] worked out at 80.9%. Also, the viability at 10 µM under setting [3] stood at 78.4%. The “Survival rate of Vcap cells” value is, setting by setting: under setting [4], 47.2%; under setting [5], 46.3%; under setting [6], 40.2%; under setting [7], 41.1%; under setting [8], 38.3%; under setting [9], 40.1%. Besides, the “Survival rate of Vcap cells” value (tested compound alone, 1 μM) is given as 80.9%.
